From US20210299059A1, “INJECTABLE PHARMACEUTICAL COMPOSITION AND PREPARATION METHOD THEREFOR” (Jiangsu Hengrui Medicine CO., LTD., priority 2018, published 2021)

Columns and labels:
[1] = Pharmacokinetics study, subcutaneous apixaban injection (Embodiment 4); type: in vivo, humans; details: human, plasma, sc, 2.5 mg, plasma drug concentration of apixaban, 1 mL of 2.5 mg/mL apixaban injection subcutaneously
[2] = cited from earlier work
[3] = cited from earlier work; remark: listed apart in the source

## COc1ccc(-n2nc(C(N)=O)c3c2C(=O)N(c2ccc(N4CCCCC4=O)cc2)CC3)cc1 [apixaban, Apixaban]
[1]; Mean of three subjects
  concentration at 0 h: 0 ng/mL
  concentration at 0.25 h: 6.19 ng/mL
  concentration at 0.5 h: 14.5 ng/mL
  concentration at 1 h: 27.1 ng/mL
  concentration at 2 h: 40.6 ng/mL
  concentration at 3 h: 47.3 ng/mL
  concentration at 4 h: 51.2 ng/mL
  concentration at 5 h: 43.4 ng/mL
  concentration at 6 h: 41.6 ng/mL
  concentration at 8 h: 39.3 ng/mL
  concentration at 10 h: 32.2 ng/mL
  concentration at 16 h: 21.2 ng/mL
  concentration at 24 h: 13.8 ng/mL
[1]; subject C-01
  concentration at 0 h: 0 ng/mL
  concentration at 0.25 h: 8.08 ng/mL
  concentration at 0.5 h: 18.2 ng/mL
  concentration at 1 h: 35.8 ng/mL
  concentration at 2 h: 52 ng/mL
  concentration at 3 h: 62.1 ng/mL
  concentration at 4 h: 68.8 ng/mL
  concentration at 5 h: 52.4 ng/mL
  concentration at 6 h: 48.8 ng/mL
  concentration at 8 h: 46.7 ng/mL
  concentration at 10 h: 37.6 ng/mL
  concentration at 16 h: 22.8 ng/mL
  concentration at 24 h: 14.3 ng/mL
[1]; subject C-02
  concentration at 0 h: 0 ng/mL
  concentration at 0.25 h: 5.36 ng/mL
  concentration at 0.5 h: 14.3 ng/mL
  concentration at 1 h: 23.8 ng/mL
  concentration at 2 h: 37.9 ng/mL
  concentration at 3 h: 43.2 ng/mL
  concentration at 4 h: 44.8 ng/mL
  concentration at 5 h: 38.1 ng/mL
  concentration at 6 h: 40.4 ng/mL
  concentration at 8 h: 33.4 ng/mL
  concentration at 10 h: 28.9 ng/mL
  concentration at 16 h: 19.2 ng/mL
  concentration at 24 h: 11.4 ng/mL
[1]; subject C-03
  concentration at 0 h: 0 ng/mL
  concentration at 0.25 h: 5.13 ng/mL
  concentration at 0.5 h: 10.9 ng/mL
  concentration at 1 h: 21.7 ng/mL
  concentration at 2 h: 31.9 ng/mL
  concentration at 3 h: 36.6 ng/mL
  concentration at 4 h: 40 ng/mL
  concentration at 5 h: 39.7 ng/mL
  concentration at 6 h: 35.5 ng/mL
  concentration at 8 h: 37.6 ng/mL
  concentration at 10 h: 30.1 ng/mL
  concentration at 16 h: 21.6 ng/mL
  concentration at 24 h: 15.8 ng/mL
[2]
  oral bioavailability: approximately 50%
[3]; at physiological pH (1.2 to 6.8)
  ionization: not ionized
[3]
  LogP: 3.53
[3]; in the physiological pH range (1.2 to 6.8)
  solubility: about 0.04 mg/ml
